Data set [1] deals with T1, recombinant purified human BTK (Homo sapiens, UniProt Q06187).
T1 construct: purchased SignalChem, USA
Kind of data set: In vitro BTK kinase assay on ADP Glo platform. Format: biochemical. As to conditions: 2 hr room temperature, read-out: In-vitro BTK inhibitory activity: IC50. In a few lines: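 Recombinant human BTK (3 ng/reaction) with compound dilutions in Tris pH 7.5, MgCl2/MnCl2, BSA, DTT; started with 50 µM ATP (final) and polyGln4Tyr1 substrate, 2 h at room temperature. ADP formed detected by ADP-Glo luminescence; IC50 by nonlinear fit versus uninhibited enzyme as 100%.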

For data set [2], the target named is T2, CYP 1A2 (Homo sapiens, UniProt P05177).
T2 construct: from tissue; host or cells: human liver microsomes
T2 sequence (P05177 1-516): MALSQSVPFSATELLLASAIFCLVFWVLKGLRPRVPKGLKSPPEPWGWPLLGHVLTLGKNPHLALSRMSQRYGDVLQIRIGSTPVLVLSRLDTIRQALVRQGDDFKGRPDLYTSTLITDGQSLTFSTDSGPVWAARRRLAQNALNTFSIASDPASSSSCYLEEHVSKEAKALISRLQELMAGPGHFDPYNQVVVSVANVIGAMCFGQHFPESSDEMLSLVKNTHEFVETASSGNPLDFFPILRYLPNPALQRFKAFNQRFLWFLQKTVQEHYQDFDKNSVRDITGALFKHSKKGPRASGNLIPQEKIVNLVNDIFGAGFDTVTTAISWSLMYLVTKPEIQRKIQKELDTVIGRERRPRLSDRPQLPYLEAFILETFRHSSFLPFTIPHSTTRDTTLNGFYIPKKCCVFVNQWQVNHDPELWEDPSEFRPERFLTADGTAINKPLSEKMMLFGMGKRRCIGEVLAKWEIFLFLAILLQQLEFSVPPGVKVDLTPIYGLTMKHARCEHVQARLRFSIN
Kind of data set: CYP inhibition in human liver microsomes, 1A2. Type of data set: in vitro ADME. As to conditions: pH 7.4, @ 10 μM concn. In a few lines: (§1)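 Test compounds at […] and 10 μM were incubated in duplicate with human liver microsomes, probe substrate and 1 mM NADPH in 100 mM phosphate buffer pH 7.4 at 37° C. Reactions were stopped with acetonitrile containing internal standard, and the marker-reaction metabolite was quantified by LC-MS/MS.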
Background: Liver microsomes are vesicles of endoplasmic reticulum, rich in cytochrome P450 enzymes.

Data set [3] concerns the target T3, CYP 2C8 (Homo sapiens, UniProt P10632).
T3 construct: from tissue; host or cells: human liver microsomes
T3 sequence (P10632 1-490): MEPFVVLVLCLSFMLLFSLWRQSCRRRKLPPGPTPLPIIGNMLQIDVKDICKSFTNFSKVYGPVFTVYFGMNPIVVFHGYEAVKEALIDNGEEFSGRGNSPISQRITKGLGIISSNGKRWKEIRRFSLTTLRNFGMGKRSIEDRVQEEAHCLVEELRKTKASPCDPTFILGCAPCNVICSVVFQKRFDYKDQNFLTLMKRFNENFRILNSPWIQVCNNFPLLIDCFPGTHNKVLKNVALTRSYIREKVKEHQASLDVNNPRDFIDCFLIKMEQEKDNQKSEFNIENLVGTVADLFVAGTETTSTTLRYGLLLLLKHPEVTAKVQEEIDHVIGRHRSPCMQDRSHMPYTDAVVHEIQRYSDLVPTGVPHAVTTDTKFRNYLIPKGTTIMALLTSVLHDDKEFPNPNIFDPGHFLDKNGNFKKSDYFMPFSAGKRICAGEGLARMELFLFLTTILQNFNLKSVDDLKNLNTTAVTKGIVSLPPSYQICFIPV
Kind of data set: CYP inhibition in human liver microsomes, 2C8. Format: in vitro ADME. As to conditions: pH 7.4, @ 10 μM concn. In a few lines: as §1

The target of data set [4] is T4, CYP 2C9 (Homo sapiens, UniProt P11712).
T4 construct: from tissue; host or cells: human liver microsomes
As to the kind of experiment: CYP inhibition in human liver microsomes, 2C9. Format: in vitro ADME. As to conditions: pH 7.4, @ 10 μM concn. In a few lines:
as §1

The target of data set [5] is T5, CYP 2C19 (Homo sapiens, UniProt P33261).
T5 construct: from tissue; host or cells: human liver microsomes
Kind of data set: CYP inhibition in human liver microsomes, 2C19. Type of data set: in vitro ADME. As to conditions: pH 7.4, @ 10 μM concn. The essentials: as §1

Data set [6] has as its target T6, CYP 2D6 (Homo sapiens, UniProt P10635).
T6 construct: from tissue; host or cells: human liver microsomes
Kind of data set: CYP inhibition in human liver microsomes, 2D6. Format: in vitro ADME. As to conditions: pH 7.4, @ 10 μM concn. The essentials: as §1

In data set [7] the target is T7, CYP 3A4 (Homo sapiens, UniProt P08684).
T7 construct: from tissue; host or cells: human liver microsomes
As to the kind of experiment: CYP inhibition in human liver microsomes, 3A4. Format: in vitro ADME. As to conditions: pH 7.4, @ 10 μM concn. In a few lines:
as §1

The values below come from patent publication US9840509B2, “Heterocyclic compounds” (CADILA HEALTHCARE LIMITED, priority 2014, dated 2017).

T6 sequence (P10635 whole entry): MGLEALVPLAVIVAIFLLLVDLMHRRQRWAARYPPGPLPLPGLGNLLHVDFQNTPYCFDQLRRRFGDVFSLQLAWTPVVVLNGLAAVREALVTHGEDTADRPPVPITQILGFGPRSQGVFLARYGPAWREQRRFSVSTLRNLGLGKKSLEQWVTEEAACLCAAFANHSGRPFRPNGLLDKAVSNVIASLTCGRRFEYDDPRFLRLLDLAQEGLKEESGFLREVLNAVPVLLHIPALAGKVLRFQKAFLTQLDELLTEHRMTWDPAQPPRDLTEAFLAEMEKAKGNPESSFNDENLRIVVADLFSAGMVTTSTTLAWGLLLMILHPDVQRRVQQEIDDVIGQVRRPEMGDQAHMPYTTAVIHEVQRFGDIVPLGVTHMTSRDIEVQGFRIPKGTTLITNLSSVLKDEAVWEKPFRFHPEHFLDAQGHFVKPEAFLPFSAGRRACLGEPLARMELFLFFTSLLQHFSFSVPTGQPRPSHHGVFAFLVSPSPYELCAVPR
T1 sequence (Q06187 whole entry): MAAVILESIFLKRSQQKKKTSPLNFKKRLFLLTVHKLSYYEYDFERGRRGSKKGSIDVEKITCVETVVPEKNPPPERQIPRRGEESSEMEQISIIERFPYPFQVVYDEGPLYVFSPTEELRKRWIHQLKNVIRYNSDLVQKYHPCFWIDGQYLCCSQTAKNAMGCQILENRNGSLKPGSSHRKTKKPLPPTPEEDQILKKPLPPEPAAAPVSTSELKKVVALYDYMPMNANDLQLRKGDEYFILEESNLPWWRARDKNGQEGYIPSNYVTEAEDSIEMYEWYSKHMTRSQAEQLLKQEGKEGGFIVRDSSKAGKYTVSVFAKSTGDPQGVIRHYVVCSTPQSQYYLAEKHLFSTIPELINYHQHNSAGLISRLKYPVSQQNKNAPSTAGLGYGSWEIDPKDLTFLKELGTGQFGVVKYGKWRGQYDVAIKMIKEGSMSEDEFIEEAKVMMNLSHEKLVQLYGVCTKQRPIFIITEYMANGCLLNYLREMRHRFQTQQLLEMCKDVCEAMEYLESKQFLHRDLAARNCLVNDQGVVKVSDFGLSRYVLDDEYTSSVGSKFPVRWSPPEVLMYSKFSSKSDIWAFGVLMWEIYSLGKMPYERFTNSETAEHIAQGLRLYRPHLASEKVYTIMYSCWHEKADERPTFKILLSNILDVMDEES
T4 sequence (P11712 whole entry): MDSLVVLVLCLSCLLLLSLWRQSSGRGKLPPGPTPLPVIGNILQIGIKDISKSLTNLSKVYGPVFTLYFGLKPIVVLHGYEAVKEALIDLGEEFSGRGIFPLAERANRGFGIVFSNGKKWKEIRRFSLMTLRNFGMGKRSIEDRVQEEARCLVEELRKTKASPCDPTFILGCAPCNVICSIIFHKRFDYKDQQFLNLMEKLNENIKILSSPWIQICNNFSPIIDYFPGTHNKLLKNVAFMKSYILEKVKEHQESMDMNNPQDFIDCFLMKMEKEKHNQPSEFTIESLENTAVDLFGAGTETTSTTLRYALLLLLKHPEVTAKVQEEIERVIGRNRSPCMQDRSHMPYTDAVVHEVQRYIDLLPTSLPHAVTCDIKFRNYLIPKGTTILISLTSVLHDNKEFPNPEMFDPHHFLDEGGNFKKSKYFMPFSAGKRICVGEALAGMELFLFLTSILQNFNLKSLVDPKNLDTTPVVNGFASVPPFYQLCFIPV
T5 sequence (P33261 whole entry): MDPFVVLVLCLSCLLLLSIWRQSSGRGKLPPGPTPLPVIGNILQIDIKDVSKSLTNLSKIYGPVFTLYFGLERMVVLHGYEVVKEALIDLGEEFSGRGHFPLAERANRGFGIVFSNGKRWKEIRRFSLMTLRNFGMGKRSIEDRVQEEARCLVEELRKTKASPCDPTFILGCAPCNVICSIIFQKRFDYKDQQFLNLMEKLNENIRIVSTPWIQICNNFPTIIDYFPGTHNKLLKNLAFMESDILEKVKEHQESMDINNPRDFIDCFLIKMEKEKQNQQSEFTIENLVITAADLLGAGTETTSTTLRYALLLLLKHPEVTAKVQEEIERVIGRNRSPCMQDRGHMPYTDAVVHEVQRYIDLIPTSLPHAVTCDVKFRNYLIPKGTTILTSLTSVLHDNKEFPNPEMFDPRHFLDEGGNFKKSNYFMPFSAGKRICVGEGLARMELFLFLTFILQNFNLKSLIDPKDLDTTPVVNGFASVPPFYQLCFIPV
T7 sequence (P08684 whole entry): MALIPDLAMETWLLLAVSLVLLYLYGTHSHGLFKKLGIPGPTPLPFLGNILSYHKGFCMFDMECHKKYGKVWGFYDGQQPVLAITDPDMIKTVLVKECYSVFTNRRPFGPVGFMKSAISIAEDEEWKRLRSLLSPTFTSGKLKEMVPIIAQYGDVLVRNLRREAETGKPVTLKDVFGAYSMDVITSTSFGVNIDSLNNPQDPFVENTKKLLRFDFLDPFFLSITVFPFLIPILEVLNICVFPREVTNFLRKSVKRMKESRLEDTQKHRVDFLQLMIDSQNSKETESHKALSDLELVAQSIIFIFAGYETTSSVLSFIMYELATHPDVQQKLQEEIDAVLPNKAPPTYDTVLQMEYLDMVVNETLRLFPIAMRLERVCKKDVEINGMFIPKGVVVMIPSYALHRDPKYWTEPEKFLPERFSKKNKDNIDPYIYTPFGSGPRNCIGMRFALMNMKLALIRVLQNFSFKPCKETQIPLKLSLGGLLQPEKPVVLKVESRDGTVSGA

As for `N#C/C(=C\C1CC1)C(=O)N1CC2CC(n3nc(-c4ccc(Oc5ccccc5)cc4)c4c(N)ncnc43)CC2C1` (stereo not drawn) [Compound 28, (E)-2-(5-(4-amino-3-(4-phenoxyphenyl)-1H-pyrazolo[3,4-d]pyrimidin-1-yl)octahydrocyclopenta[c]pyrrole-2-carbonyl)-3-cyclopropylacrylonitrile], in data set [1], the IC50 was determined as 16 nM. In addition, the inhibition at 10 μM in data set [2] was under 50%; in data set [3], under 50%; in data set [4], over 50%; in data set [5] it was under 50%; in data set [6], under 50%; in data set [7], over 50%.

As to `C=CC(=O)N1CC2CC(n3nc(-c4ccc5nc(-c6ccccc6)oc5c4)c4c(N)ncnc43)CC2C1` (stereo not drawn) [Compound 19, 1-(5-(4-amino-3-(2-phenylbenzo[d]oxazol-6-yl)-1H-pyrazolo[3,4-d]pyrimidin-1-yl)hexahydrocyclopenta[c]pyrrol-2(1H)-yl)prop-2-en-1-one], the IC50 in data set [1] was 4 nM. Moreover, the inhibition at 10 μM in data set [2], in data set [3], in data set [4], in data set [5], in data set [6] and in data set [7] was under 50% throughout.

`C=CC(=O)N1CC2CC(n3nc(-c4ccc5ncoc5c4)c4c(N)ncnc43)CC2C1` (stereo not drawn) [Compound 17, 1-(5-(4-amino-3-(benzo[d]oxazol-6-yl)-1H-pyrazolo[3,4-d]pyrimidin-1-yl)hexahydrocyclopenta[c]pyrrol-2(1H)-yl)prop-2-en-1-one]: the IC50 in data set [1] turned out to be 5 nM. Moreover, the inhibition at 10 μM was under 50% in data set [2]; under 50% in data set [3]; under 50% in data set [4]; under 50% in data set [5]; under 50% in data set [6]; over 50% in data set [7].

As to `C=CC(=O)N1CC2CC(n3nc(-c4ccc(C(=O)Nc5nc6ccccc6s5)cc4)c4c(N)ncnc43)CC2C1` (stereo not drawn) [Compound 34, 4-(1-(2-acryloyloctahydrocyclopenta[c]pyrrol-5-yl)-4-amino-1H-pyrazolo[3,4-d]pyrimidin-3-yl)-N-(benzo[d]thiazol-2-yl)benzamide], the IC50 in data set [1] is 359 nM. For the same compound, the inhibition at 10 μM is over 50% in data set [2]; under 50% in data set [3]; under 50% in data set [4]; over 50% in data set [5]; under 50% in data set [6]; over 50% in data set [7].

`Cc1ccnc(NC(=O)c2ccc(-c3nn(C4CC5CN(C(=O)/C=C/CN(C)C)CC5C4)c4ncnc(N)c34)cc2)c1` (stereo not drawn) [Compound 45, (E)-4-(4-amino-1-(2-(4-(dimethylamino)but-2-enoyl)octahydrocyclopenta[c]pyrrol-5-yl)-1H-pyrazolo[3,4-d]pyrimidin-3-yl)-N-(4-methylpyridin-2-yl) benzamide]: in data set [1], the IC50 amounted to 10 nM. For the same compound, the inhibition at 10 μM in data set [2] is over 50%; in data set [3] it was under 50%; in data set [4], under 50%; in data set [5], under 50%; in data set [6] it was under 50%; in data set [7], under 50%.

For the compound `C=CC(=O)N1CC2CC(n3nc(-c4ccc5sccc5c4)c4c(N)ncnc43)CC2C1` (stereo not drawn) [Compound 6, 1-(5-(4-amino-3-(benzo[b]thiophen-5-yl)-1H-pyrazolo[3,4-d]pyrimidin-1-yl)hexahydrocyclopenta[c]pyrrol-2(1H)-yl)prop-2-en-1-one], in data set [1], the IC50 came out at 1.7 nM. For the same compound, the inhibition at 10 μM in data set [2], in data set [3], in data set [4], in data set [5], in data set [6] and in data set [7] was under 50% throughout.

Take `C=CC(=O)N1CC2CC(n3nc(-c4ccc(C(=O)Nc5cnccn5)cc4)c4c(N)ncnc43)CC2C1` (stereo not drawn) [Compound 37, 4-(1-(2-acryloyloctahydrocyclopenta[c]pyrrol-5-yl)-4-amino-1H-pyrazolo[3,4-d]pyrimidin-3-yl)-N-(pyrazin-2-yl)benzamide]: the IC50 in data set [1] worked out at 1 nM. The inhibition at 10 μM in data set [2], in data set [3], in data set [4], in data set [5], in data set [6] and in data set [7] was under 50% each time.

`CO/C(=N\c1cc(C)ccn1)c1ccc(-c2nn(C3CC4CN(C(=O)/C=C/CN(C)C)CC4C3)c3ncnc(N)c23)cc1` (stereo not drawn) [Compound 50, (Z)-methyl 4-(4-amino-1-(2-((E)-4-(dimethylamino)but-2-enoyl)octahydrocyclopenta[c]pyrrol-5-yl)-1H-pyrazolo[3,4-d]pyrimidin-3-yl)-N-(4-methylpyridin-2-yl) benzimidate]: in data set [1], the IC50 was determined as 19 nM. In addition, the inhibition at 10 μM is under 50% in data set [2]; under 50% in data set [3]; under 50% in data set [4]; under 50% in data set [5]; over 50% in data set [6]; over 50% in data set [7].

With `C=CC(=O)N1CC2CC(n3nc(-c4ccc(C(=O)Nc5ccccn5)cc4)c4c(N)ncnc43)CC2C1` (stereo not drawn) [Compound 13, 4-(1-(2-acryloyloctahydrocyclopenta[c]pyrrol-5-yl)-4-amino-1H-pyrazolo[3,4-d]pyrimidin-3-yl)-N-(pyridin-2-yl)benzamide], the IC50 in data set [1] came out at 1.8 nM. Further, the inhibition at 10 μM was under 50% in data set [2]; under 50% in data set [3]; under 50% in data set [4]; over 50% in data set [5]; under 50% in data set [6]; under 50% in data set [7].

For `C=CC(=O)N1CC2CC(n3nc(-c4ccc5nc(Oc6ccccc6)sc5c4)c4c(N)ncnc43)CC2C1` (stereo not drawn) [Compound 20, 1-(5-(4-amino-3-(2-phenoxybenzo[d]thiazol-6-yl)-1H-pyrazolo [3,4-d]pyrimidin-1-yl)hexahydrocyclopenta[c]pyrrol-2(1H)-yl)prop-2-en-1-one], the IC50 in data set [1] is 223 nM. Moreover, the inhibition at 10 μM is under 50% in data set [2]; over 50% in data set [3]; over 50% in data set [4]; under 50% in data set [5]; under 50% in data set [6]; over 50% in data set [7].

As to `C=CC(=O)N1CC2CC(n3nc(-c4ccc(-c5cnn(C)c5)cc4)c4c(N)ncnc43)CC2C1` (stereo not drawn) [Compound 21, 1-(5-(4-amino-3-(4-(1-methyl-1H-pyrazol-4-yl)phenyl)-1H-pyrazolo [3,4-d]pyrimidin-1-yl)hexahydrocyclopenta[c]pyrrol-2(1H)-yl)prop-2-en-1-one], the IC50 in data set [1] amounted to 50 nM. Moreover, the inhibition at 10 μM was over 50% in data set [2]; under 50% in data set [3]; under 50% in data set [4]; under 50% in data set [5]; under 50% in data set [6]; under 50% in data set [7].

Take `C=CC(=O)N1CC2CC(n3nc(-c4ccc5nc(OC)sc5c4)c4c(N)ncnc43)CC2C1` (stereo not drawn) [Compound 10, 1-(5-(4-amino-3-(2-methoxybenzo[d]thiazol-6-yl)-1H-pyrazolo[3,4-d]pyrimidin-1-yl)hexahydrocyclopenta[c]pyrrol-2(1H)-yl)prop-2-en-1-one]: the IC50 in data set [1] is 25 nM. In addition, the inhibition at 10 μM in data set [2] is under 50%; in data set [3], over 50%; in data set [4], under 50%; in data set [5], under 50%; in data set [6], over 50%; in data set [7] it was over 50%.

Usually IC50 stands for the concentration that gives 50% inhibition. For orientation: inhibition means the share of the control response that was lost under treatment. Low values mean a response near the control, high ones a response far below the control.
